Numbering of substitutions follows the chain as printed.
Columns and labels:
Assay type in all cases: biochemical
Ab1 (h) = biological target: T1, Ab1 (h) (Homo sapiens, UniProt P00519); assay: Radioisotope labeling kinase assay (Eurofins), Ab1; settings: 1 μM compound; read-out: Inhibitory activity per unit concentration/Activity % Ab1 (h)
T1 construct: purchased Eurofins
Protocol: (§1) An activity to a human recombinant protein kinase of a series of compounds was determined by a radioisotope labeling method, which was provided by Eurofins Company. A compound to be detected was mixed with a corresponding protein kinase buffer (20 mM propyl sulfonate (MOPS, […].), 1 mM EDTA, 0.10 β-mercaptoethanol, 0.010 Brij-35, […], and 1 mg/mL BSA), the mixture was added into a reaction system (100 μM reaction substrate […], 8 mM MOPS with a pH value of 7.0, 10 mM MgAcetate, 0.2 mM EDTA, and a certain concentration of γ-^33P-ATP). After adding an MgATP composite solution, the reaction was started at room temperature for 40 minutes, and the reaction was terminated by adding 5 μl of […] solution. Then, 10 μl of reaction solution was dropwise added onto a filter and washed with 75 mM phosphoric acid solution for three times, 5 minutes each time, then washed with methanol once again, and dried and subjected to scintillation counting.

BTK (h) = biological target: T2, BTK (h) (Homo sapiens, UniProt Q06187); assay: Radioisotope labeling kinase assay (Eurofins), BTK; settings: 1 μM compound; read-out: Inhibitory activity per unit concentration/Activity % BTK (h)
T2 construct: purchased Eurofins
Protocol: as §1

Flt3 (D835Y) (h) = biological target: T3, Flt3 (D835Y) (h) (Homo sapiens, UniProt P36888, D835Y); assay: Radioisotope labeling kinase assay (Eurofins), Flt3 (D835Y); settings: 1 μM compound; read-out: Inhibitory activity per unit concentration/Activity % Flt3 (D835Y) (h)
T3 construct: purchased Eurofins
T3 sequence (P36888 27-993 D835Y): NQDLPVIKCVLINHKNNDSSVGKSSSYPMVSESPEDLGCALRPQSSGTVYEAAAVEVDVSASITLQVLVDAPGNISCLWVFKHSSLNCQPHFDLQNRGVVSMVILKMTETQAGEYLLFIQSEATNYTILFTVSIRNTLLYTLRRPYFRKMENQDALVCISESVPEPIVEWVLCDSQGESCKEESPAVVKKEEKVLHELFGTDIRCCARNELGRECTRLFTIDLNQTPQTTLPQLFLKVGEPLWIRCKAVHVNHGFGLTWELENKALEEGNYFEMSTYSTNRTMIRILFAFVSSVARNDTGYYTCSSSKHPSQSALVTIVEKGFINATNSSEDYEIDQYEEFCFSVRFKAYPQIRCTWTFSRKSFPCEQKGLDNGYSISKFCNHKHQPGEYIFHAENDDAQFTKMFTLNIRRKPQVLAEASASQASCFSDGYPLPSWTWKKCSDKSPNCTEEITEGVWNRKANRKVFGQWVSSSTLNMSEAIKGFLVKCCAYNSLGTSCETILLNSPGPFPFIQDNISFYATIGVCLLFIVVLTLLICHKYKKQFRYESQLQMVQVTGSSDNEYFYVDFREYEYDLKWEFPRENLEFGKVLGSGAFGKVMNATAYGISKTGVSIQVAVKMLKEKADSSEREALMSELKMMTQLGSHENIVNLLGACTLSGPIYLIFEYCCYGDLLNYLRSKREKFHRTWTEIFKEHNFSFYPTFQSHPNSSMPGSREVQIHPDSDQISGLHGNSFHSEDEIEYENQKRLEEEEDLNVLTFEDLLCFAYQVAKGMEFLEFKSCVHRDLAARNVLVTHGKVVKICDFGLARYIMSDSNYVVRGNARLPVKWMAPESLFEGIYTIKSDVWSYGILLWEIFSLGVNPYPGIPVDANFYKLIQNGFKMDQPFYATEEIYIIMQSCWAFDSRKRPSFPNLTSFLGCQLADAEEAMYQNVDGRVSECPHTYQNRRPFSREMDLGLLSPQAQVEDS
Protocol: as §1

Flt3 (h) = biological target: T4, Flt3 (h) (Homo sapiens, UniProt P36888); assay: Radioisotope labeling kinase assay (Eurofins), Flt3; settings: 1 μM compound; read-out: Inhibitory activity per unit concentration/Activity % Flt3 (h)
T4 construct: purchased Eurofins
T4 sequence (P36888 27-993): T3 sequence (P36888 27-993 D835Y) with Y809D
Protocol: as §1

JAK3 (h) = biological target: T5, JAK3 (h) (Homo sapiens, UniProt P52333); assay: Radioisotope labeling kinase assay (Eurofins), JAK3; settings: 1 μM compound; read-out: Inhibitory activity per unit concentration/Activity % JAK3 (h)
T5 construct: purchased Eurofins
T5 sequence (P52333 1-1124): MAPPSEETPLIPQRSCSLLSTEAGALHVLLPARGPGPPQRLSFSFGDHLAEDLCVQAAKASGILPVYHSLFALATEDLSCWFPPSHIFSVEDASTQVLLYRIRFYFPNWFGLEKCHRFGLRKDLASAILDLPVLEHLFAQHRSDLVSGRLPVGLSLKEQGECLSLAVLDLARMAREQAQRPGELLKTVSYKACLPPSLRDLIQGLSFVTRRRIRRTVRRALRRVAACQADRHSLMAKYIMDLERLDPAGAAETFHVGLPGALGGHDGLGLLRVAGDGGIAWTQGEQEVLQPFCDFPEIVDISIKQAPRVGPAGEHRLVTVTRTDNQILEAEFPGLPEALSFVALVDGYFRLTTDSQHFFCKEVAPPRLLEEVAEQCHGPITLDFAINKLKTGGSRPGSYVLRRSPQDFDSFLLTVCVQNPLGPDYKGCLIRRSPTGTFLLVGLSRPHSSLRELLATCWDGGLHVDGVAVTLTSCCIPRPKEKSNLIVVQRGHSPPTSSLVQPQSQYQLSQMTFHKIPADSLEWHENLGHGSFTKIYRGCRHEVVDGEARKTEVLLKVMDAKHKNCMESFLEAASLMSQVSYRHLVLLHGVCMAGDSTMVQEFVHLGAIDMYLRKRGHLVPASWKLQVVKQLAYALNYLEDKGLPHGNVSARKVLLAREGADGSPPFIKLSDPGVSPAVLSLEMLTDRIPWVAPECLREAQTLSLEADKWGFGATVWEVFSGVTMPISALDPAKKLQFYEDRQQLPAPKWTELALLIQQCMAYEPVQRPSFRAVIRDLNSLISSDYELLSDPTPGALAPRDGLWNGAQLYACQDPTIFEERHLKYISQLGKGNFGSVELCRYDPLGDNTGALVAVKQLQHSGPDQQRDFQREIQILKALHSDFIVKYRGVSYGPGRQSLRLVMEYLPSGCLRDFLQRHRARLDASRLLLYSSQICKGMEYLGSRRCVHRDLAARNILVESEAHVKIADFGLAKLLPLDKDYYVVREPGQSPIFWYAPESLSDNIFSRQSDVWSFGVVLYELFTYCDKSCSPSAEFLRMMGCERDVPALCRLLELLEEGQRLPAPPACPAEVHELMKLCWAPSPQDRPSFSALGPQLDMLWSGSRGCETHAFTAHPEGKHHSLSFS
Protocol: as §1

T2 sequence (Q06187 whole entry): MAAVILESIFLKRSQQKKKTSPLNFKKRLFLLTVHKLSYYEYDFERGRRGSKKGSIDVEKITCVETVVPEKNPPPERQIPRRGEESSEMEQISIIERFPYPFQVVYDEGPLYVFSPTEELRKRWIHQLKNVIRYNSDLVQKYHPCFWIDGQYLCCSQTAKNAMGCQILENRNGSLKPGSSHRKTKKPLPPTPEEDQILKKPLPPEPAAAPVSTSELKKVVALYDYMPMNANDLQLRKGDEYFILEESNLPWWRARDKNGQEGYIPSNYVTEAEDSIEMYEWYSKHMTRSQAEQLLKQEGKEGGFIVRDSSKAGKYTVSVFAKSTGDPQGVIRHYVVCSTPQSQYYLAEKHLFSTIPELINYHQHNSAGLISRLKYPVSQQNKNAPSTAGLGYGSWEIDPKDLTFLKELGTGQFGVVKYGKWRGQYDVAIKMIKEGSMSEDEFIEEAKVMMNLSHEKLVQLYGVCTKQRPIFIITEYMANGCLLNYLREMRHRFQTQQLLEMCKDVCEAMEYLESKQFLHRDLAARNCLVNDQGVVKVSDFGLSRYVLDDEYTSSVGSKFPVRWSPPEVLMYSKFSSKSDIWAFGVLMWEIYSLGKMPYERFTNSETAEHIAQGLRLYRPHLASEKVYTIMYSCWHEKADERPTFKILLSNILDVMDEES
T1 sequence (P00519 whole entry): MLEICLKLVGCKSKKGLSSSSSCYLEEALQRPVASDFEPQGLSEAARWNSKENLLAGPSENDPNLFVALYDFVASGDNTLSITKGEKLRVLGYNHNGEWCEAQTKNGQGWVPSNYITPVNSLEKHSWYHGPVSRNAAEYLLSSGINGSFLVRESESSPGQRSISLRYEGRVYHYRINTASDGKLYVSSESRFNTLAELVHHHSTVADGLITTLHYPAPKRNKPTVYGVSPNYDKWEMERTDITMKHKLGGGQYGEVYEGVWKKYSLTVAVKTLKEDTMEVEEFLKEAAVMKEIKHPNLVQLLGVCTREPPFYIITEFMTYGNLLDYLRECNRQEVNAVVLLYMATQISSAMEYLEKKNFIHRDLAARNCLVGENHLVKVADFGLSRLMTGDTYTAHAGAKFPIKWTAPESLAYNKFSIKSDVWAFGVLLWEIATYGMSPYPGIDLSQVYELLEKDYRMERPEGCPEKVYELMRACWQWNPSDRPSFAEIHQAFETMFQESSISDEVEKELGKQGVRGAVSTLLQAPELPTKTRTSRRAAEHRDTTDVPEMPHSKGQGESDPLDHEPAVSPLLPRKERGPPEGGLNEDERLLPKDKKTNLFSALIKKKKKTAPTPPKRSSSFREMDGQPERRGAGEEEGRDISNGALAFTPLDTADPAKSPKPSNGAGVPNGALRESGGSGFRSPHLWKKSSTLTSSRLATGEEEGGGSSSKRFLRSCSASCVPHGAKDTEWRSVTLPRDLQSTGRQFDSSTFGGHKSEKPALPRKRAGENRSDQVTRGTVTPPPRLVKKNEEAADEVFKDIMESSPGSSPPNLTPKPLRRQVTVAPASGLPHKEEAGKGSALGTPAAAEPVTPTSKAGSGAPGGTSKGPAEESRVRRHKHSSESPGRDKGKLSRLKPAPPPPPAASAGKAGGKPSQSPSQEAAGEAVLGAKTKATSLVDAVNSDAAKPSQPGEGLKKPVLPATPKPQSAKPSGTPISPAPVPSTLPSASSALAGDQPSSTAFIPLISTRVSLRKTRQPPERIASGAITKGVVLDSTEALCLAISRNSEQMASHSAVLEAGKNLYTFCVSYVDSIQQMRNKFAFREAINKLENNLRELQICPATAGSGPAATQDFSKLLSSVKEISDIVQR

SMILES: O=C(/C=C/c1cnc[nH]1)Nc1cc2cc(c1)Nc1nccc(n1)-c1cccc(c1)COC/C=C/COC2 [XVI-7]
- activity at 1 µM (Ab1 (h)): 17%
- activity at 1 µM (BTK (h)): 45%
- activity at 1 µM (Flt3 (D835Y) (h)): -1%
- activity at 1 µM (Flt3 (h)): 7%
- activity at 1 µM (JAK3 (h)): 21%

SMILES: N#Cc1ccc(/C=C/C(=O)Nc2cc3cc(c2)Nc2nccc(n2)-c2cccc(c2)COC/C=C/COC3)cc1 [XVI-2]
- activity at 1 µM (Ab1 (h)): 42%
- activity at 1 µM (BTK (h)): 61%
- activity at 1 µM (Flt3 (D835Y) (h)): 3%
- activity at 1 µM (Flt3 (h)): 12%
- activity at 1 µM (JAK3 (h)): 56%

SMILES: C1=C/COCc2ccc(OC/C=C/CN3CCOCC3)c(c2)Nc2nccc(n2)-c2cccc(c2)COC/1 [XVI-23]
- activity at 1 µM (Ab1 (h)): 85%
- activity at 1 µM (BTK (h)): 90%
- activity at 1 µM (Flt3 (D835Y) (h)): 27%
- activity at 1 µM (Flt3 (h)): 78%
- activity at 1 µM (JAK3 (h)): 10%

SMILES: O=C(/C=C/CNC1CCOC1)Nc1cc2cc(c1)Nc1nccc(n1)-c1cccc(c1)COC/C=C/COC2 (centres unmarked) [XVI-15]
- activity at 1 µM (Ab1 (h)): 7%
- activity at 1 µM (BTK (h)): 12%
- activity at 1 µM (Flt3 (D835Y) (h)): 6%
- activity at 1 µM (Flt3 (h)): 20%
- activity at 1 µM (JAK3 (h)): 6%

SMILES: CN1C/C=C/COCc2cccc(c2)-c2ccnc(n2)Nc2cc(cc(NC(=O)/C=C/c3ccc(C#N)cc3)c2)C1 [XVI-27]
- activity at 1 µM (Ab1 (h)): 45%
- activity at 1 µM (BTK (h)): 77%
- activity at 1 µM (Flt3 (D835Y) (h)): 2%
- activity at 1 µM (Flt3 (h)): 8%
- activity at 1 µM (JAK3 (h)): 52%

SMILES: C1=C/COCc2ccc(O/C=C/CN3CCCC3)c(c2)Nc2nccc(n2)-c2cccc(c2)CCC/1 [XVI-34]
- activity at 1 µM (Ab1 (h)): 98%
- activity at 1 µM (BTK (h)): 87%
- activity at 1 µM (Flt3 (D835Y) (h)): 79%
- activity at 1 µM (Flt3 (h)): 125%
- activity at 1 µM (JAK3 (h)): 87%

SMILES: O=C(/C=C/C(F)(F)F)Nc1cc2cc(c1)Nc1nccc(n1)-c1cccc(c1)COC/C=C/COC2 [XVI-5]
- activity at 1 µM (Ab1 (h)): 57%
- activity at 1 µM (BTK (h)): 88%
- activity at 1 µM (Flt3 (D835Y) (h)): 7%
- activity at 1 µM (Flt3 (h)): 17%
- activity at 1 µM (JAK3 (h)): 75%

SMILES: CN1C/C=C/COCc2cccc(c2)-c2ccnc(n2)Nc2cc(cc(NC(=O)/C=C/CN3CCCC3)c2)C1 [XVI-25]
- activity at 1 µM (Ab1 (h)): 35%
- activity at 1 µM (BTK (h)): 64%
- activity at 1 µM (Flt3 (D835Y) (h)): 0%
- activity at 1 µM (Flt3 (h)): 6%
- activity at 1 µM (JAK3 (h)): 83%

SMILES: CCCC#CC(=O)Nc1cc2cc(c1)Nc1nccc(n1)-c1cccc(c1)COC/C=C/CN(C)C2 [XVII-4]
- activity at 1 µM (Ab1 (h)): 52%
- activity at 1 µM (BTK (h)): 80%
- activity at 1 µM (Flt3 (D835Y) (h)): 3%
- activity at 1 µM (Flt3 (h)): 7%
- activity at 1 µM (JAK3 (h)): 83%

SMILES: NC1CCN(C/C=C/C(=O)Nc2cc3cc(c2)Nc2nccc(n2)-c2cccc(c2)COC/C=C/COC3)C1 (centres unmarked) [XVI-17]
- activity at 1 µM (Ab1 (h)): -4%
- activity at 1 µM (BTK (h)): 17%
- activity at 1 µM (Flt3 (D835Y) (h)): 8%
- activity at 1 µM (Flt3 (h)): 16%
- activity at 1 µM (JAK3 (h)): 4%

SMILES: C1=C/COCc2ccc(OC/C=C/CN3CCCC3)c(c2)Nc2nccc(n2)-c2cccc(c2)COC/1 [XVI-20]
- activity at 1 µM (Ab1 (h)): 85%
- activity at 1 µM (BTK (h)): 90%
- activity at 1 µM (Flt3 (D835Y) (h)): 33%
- activity at 1 µM (Flt3 (h)): 91%
- activity at 1 µM (JAK3 (h)): 97%

SMILES: C=CC(=O)Nc1cc2cc(c1)Nc1nccc(n1)-c1cccc(c1)COC/C=C/CN(C)C2 [XVI-31]
- activity at 1 µM (Ab1 (h)): 50%
- activity at 1 µM (BTK (h)): 86%
- activity at 1 µM (Flt3 (D835Y) (h)): 2%
- activity at 1 µM (Flt3 (h)): 7%
- activity at 1 µM (JAK3 (h)): 57%

SMILES: CN1C/C=C/COCc2cccc(c2)-c2ccnc(n2)Nc2cc(cc(NC(=O)C#CCN3CCOCC3)c2)C1 [XVII-5]
- activity at 1 µM (Ab1 (h)): 45%
- activity at 1 µM (BTK (h)): 72%
- activity at 1 µM (Flt3 (D835Y) (h)): 1%
- activity at 1 µM (Flt3 (h)): 4%
- activity at 1 µM (JAK3 (h)): 60%

SMILES: CN1C/C=C/COCc2cccc(c2)-c2ccnc(n2)Nc2cc(cc(NC(=O)/C=C/c3cnc[nH]3)c2)C1 [XVI-32]
- activity at 1 µM (Ab1 (h)): 50%
- activity at 1 µM (BTK (h)): 82%
- activity at 1 µM (Flt3 (D835Y) (h)): 0%
- activity at 1 µM (Flt3 (h)): 5%
- activity at 1 µM (JAK3 (h)): 30%

SMILES: O=C(/C=C/COc1cc2cc(c1)Nc1nccc(n1)-c1cccc(c1)COC/C=C/COC2)N1CCOCC1 [XVI-14]
- activity at 1 µM (Ab1 (h)): 46%
- activity at 1 µM (BTK (h)): 47%
- activity at 1 µM (Flt3 (D835Y) (h)): 3%
- activity at 1 µM (Flt3 (h)): 8%
- activity at 1 µM (JAK3 (h)): 21%

SMILES: C1=C/COCc2cccc(c2)-c2ccnc(n2)Nc2cc(cc(OC/C=C/CN3CCOCC3)c2)COC/1 [XVI-16]
- activity at 1 µM (Ab1 (h)): 19%
- activity at 1 µM (BTK (h)): 48%
- activity at 1 µM (Flt3 (D835Y) (h)): -1%
- activity at 1 µM (Flt3 (h)): 20%
- activity at 1 µM (JAK3 (h)): 32%
